Laboratory results taken from PubChem BioAssay AID179 (DTP/NCI, 2004).
Several values for one entry are separate records, joined by “and”; a condition that tells them apart may be missing. Equal values may be shown once. Activity calls are given as the source filed them.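 The calls were made as follows: active = compounds giving half or more protection of infected cells from virus-caused growth loss, again on retest; inactive = the rest.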

Test system: CEM cells HIV-1 protection, formazan growth assay
Assay: NCI AIDS Antiviral Assay
Conditions: for IC50: measured here: growth of uninfected CEM cells
In short: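 CEM (human) cells, HIV-1 infected vs uninfected, 5-point dosing, formazan growth read-out. Retest threshold 50% protection.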

Compound	EC50	IC50	outcome
NC(=S)N/N=C1\CCc2ccccc2C1	> 575 µM	15.8 µM	–
Cc1ccc2cc(N)c3ccc(C)nc3c2n1.Cc1ccc2cc(N)c3ccc(C)nc3c2n1.O=C1OC(C(O)C[O-])C(O)=C1O.[Cu+]	> 12.6 µM	0.55 µM	–
NNc1nc(Nc2ccccc2)nc(Nc2ccccc2)n1	> 200 µM	38 µM	–
CN(C)CCCCN1c2ccccc2Sc2ccc(C(=O)c3ccccc3)cc21	> 200 µM	6.61 µM	–
O=C1/C(=C/c2ccc(Cl)cc2)CNC/C1=C\c1ccc(Cl)cc1	> 151 µM	10.5 µM and 1.05 µM	–
COC(=O)c1ccccc1/C=C1\Cc2ccc3c(c2C1=O)CCC3	> 200 µM	> 200 µM	–
CC(=O)OC1C2CCC3CC2C2(SCCS2)C31 (configuration not stated)	> 200 µM	> 200 µM	–
CSc1ccc(C2OC(=O)c3c2ccc2ccccc32)c(C)c1 (configuration not stated)	> 16.2 µM	> 16.2 µM	–
CSc1cnc2ccccc2c1Sc1c[nH]c2ccccc2c1=O	> 14.8 µM	13.2 µM	–
COC1=Nc2ccccc2S(=O)(=O)C=C1	> 398 µM	0.813 µM	–
C/C(=N\NC(N)=S)c1ccc(C2CCCCC2)cc1	–	–	inactive
[CH3][Sn]([CH3])([S]CCS(=O)(=O)O)[S]CCS(=O)(=O)O	> 200 µM	95.5 µM	–
CCOC(OC(C)=O)[C@@H]1C=C[C@H](C)N(c2ccc([N+](=O)[O-])cc2)O1 (some centres not stated)	> 40.7 µM	2.24 µM	–
COC(=O)C1=COC(O)C2CCCC12 (configuration not stated)	> 1260 µM	107 µM	–
O=C1NC2NC(=O)NC2N1 (configuration not stated)	> 479 µM	> 479 µM	–
N=C(N)c1ccc(C(NC(=O)CNS(=O)(=O)c2ccc3ccccc3c2)P(=O)(Oc2ccccc2)Oc2ccccc2)cc1 (configuration not stated)	0.741 µM	7.08 µM	–
N#Cc1ccccc1CSc1ncnc2nc[nH]c12	12.3 µM	105 µM	–
O=C1CN(c2ccccc2)C(=O)CN1NCNN1CC(=O)N(c2ccccc2)CC1=O	> 200 µM	> 200 µM	–
Nc1sc(=S)nc2sc(Nc3ccccc3)nc12	> 427 µM	> 427 µM	–
NS(=O)(=O)c1cc(=O)[nH]c(=O)[nH]1	> 457 µM	251 µM	–
CC1CCCN2C(=O)CN(CCc3ccccc3)CC(=O)N12 (configuration not stated)	–	–	inactive

Compound	EC50	IC50	outcome
O=C1CNCCCN2CCN(CCCNCC(=O)Nc3ccc(cc3)S(=O)(=O)c3ccc(cc3)NC(=O)CNCCCN3CCN(CCCNCC(=O)Nc4ccc(cc4)S(=O)(=O)c4ccc(cc4)N1)CC3)CC2	> 50.1 µM	> 50.1 µM	–
Cc1ccc(-n2cc(-c3ccc(Cl)cc3)c3c(NN)ncnc32)cc1	> 200 µM	3.72 µM	–
Cc1cc2c(cc1C)N1Cc3c(ccc(C)c3C)N(C2)C1 (tested in a mixture with another compound)	–	–	inactive
Cc1cc(N(CCCl)CCCl)ccc1N=Nc1ccccc1	> 200 µM	19.5 µM	–
CN(C)CCOc1ccc(/C(=C(/CCCl)c2ccccc2)c2ccccc2)cc1	> 43.7 µM	0.38 µM	–
OC(c1cc2ccccc2[nH]1)C1(c2cccnc2)SCCCS1 (configuration not stated)	> 200 µM	57.5 µM	–
O=C(Nc1nc(C23CC4CC(CC(C4)C2)C3)cs1)c1cc2cc(Cl)ccc2oc1=O	> 200 µM	> 200 µM	–
CSC1=N/C(=C\c2ccco2)C(=O)N1CN1CCCCC1	> 200 µM	102 µM	–
CCOc1ccc(N=Cc2ccc3ccccc3n2)cc1	–	–	inactive
Cn1c2ccccc2c2c3c(ccc21)C(=O)c1ccccc1C3=O	> 17 µM	> 17 µM	–
O=S1(=O)CC(c2ccccc2)=NN=C(c2ccccc2)C1	> 61.7 µM	> 61.7 µM	–
N#CC1=C(N)N(/N=C/c2ccccc2)C(c2ccccc2)C1(C#N)C#N (configuration not stated)	> 200 µM	3.89 µM	–
O=C(O)C(CP(=O)(O)O)=C(Cl)Cl	> 741 µM	> 741 µM	–
CC(=O)Oc1c(OC(C)=O)c(C=O)c2c(OC(C)=O)c(-c3c(C)cc4c(C(C)C)c(OC(C)=O)c(OC(C)=O)c(C=O)c4c3OC(C)=O)c(C)cc2c1C(C)C	> 200 µM	8.91 µM	–
COc1ccc(CC(NC(=O)NSc2ccccc2)C(=O)NC2C(CO)OC(n3cnc4c(N(C)C)ncnc43)C2O)cc1 (configuration not stated)	> 200 µM	87.1 µM	–
CC1=NOC(=O)C1N=Nc1ccc(Br)c(C)c1 (configuration not stated)	–	–	inactive
Cn1c(N)c(N=O)c(=O)n(C)c1=O	> 200 µM	> 200 µM	–
Oc1ccc2occ3c2c1CCC3	–	–	inactive
CC1(C)CC(=O)C(C(CC(c2ccccc2)c2cc3c(cc2O)OCO3)C2=C(O)CC(C)(C)CC2=O)=C(O)C1 (configuration not stated)	> 200 µM	112 µM	–
COc1c2c(c3ccccc3c1O)C1C=CC2C1 (configuration not stated)	> 110 µM	10 µM	–
COC(=O)C(Cc1ccc(N(C)C)cc1)(NC(=O)c1ccccc1)P(=O)(OC)OC (configuration not stated)	> 417 µM	398 µM	–

Compound	EC50	IC50	outcome
CCCCCCC1=C(O)C(=O)C(CCCCCC)=C(O)C1=O	> 69.2 µM	11.7 µM	–
c1ccc2c(CCNC3=NCCO3)cccc2c1	–	–	inactive
Cc1nc(SCC(N)=O)c2sc(=S)n(-c3ccccc3)c2n1	> 200 µM	> 200 µM	–
[N-]=[N+]=NC12CC3C4CC5CC3C(C1)C(C5)C4C2	> 282 µM	162 µM	–
Cc1cn([C@H]2C[C@H](N=[N+]=[N-])[C@@H](COC(=O)CCC(=O)OC3CN(Cc4ccccc4)C(=O)N(Cc4ccccc4)C3)O2)c(=O)[nH]c1=O	0.955 µM	89.1 µM	–
CC(=O)NNc1nc(C)c(C(/C=C/c2ccc(/C=C/C(=N\NC(=O)c3ccncc3)c3sc(NNC(C)=O)nc3C)cc2)=N/NC(=O)c2ccncc2)s1	> 13.2 µM	> 13.2 µM	–
CN(C)CCN1C(=O)c2ccccc2N(C)c2ccccc21	> 200 µM	> 200 µM	–
CC[N+]12CC[N+](CC)(CC1)C2	> 708 µM	> 708 µM	–
O=S(Cc1ccccc1)/C(=C/NC(=S)Nc1cc(Cl)ccc1Cl)c1ccccc1 (configuration not stated)	> 200 µM	> 200 µM	–
Cc1nc2c(=S)[nH]ncc2[nH]1	> 200 µM	> 200 µM	–
N#C/C(=C\c1cc(Cl)cc(Cl)c1O)c1nc2ccccc2[nH]1	> 200 µM	30.9 µM	–
O=Cc1cccc(/C=N/Nc2nnc(N/N=C/c3cccc(C=O)c3)c3ccccc23)c1	> 200 µM	28.8 µM	–
CCOC(=O)N1CCN(c2ccc3c(C)cc(C)nc3n2)CC1	> 200 µM	> 200 µM	–
COc1ccccc1NC(=S)Nc1cccc(C)n1	16.6 µM	61.7 µM	–
COc1ccc2c(c1OC)Oc1c(OC)ccc3c1C(C2)NCC3 (configuration not stated)	> 170 µM	> 100 µM	–
COc1cc2c(cn1)[nH]c1ccccc12	–	–	inactive
Cc1cn([C@@H]2O[C@H](CO[Si](C)(C)C(C)(C)C)[C@]3(O[C@H]3C(=O)NO)[C@H]2O[Si](C)(C)C(C)(C)C)c(=O)[nH]c1=O	> 200 µM	1.17 µM	–
Cc1cnc2c(ccc3c(C)c(C)c(C)nc32)c1C.Cc1cnc2c(ccc3c(C)c(C)c(C)nc32)c1C.O=C1OC(C(O)C[O-])C(O)=C1O.[Cu+]	> 25.1 µM	1.29 µM	–
CC(C)(C)OC(=O)NC(Cc1ccccc1)C(=S)N1CCCC1 (configuration not stated)	56.2 µM	141 µM	–
CC(C)OP(=O)(OC(C)C)C(N(C)C)P(=O)(OC(C)C)OC(C)C.[Cl][Sn]([Cl])([Cl])[c]1ccccc1	–	–	inactive
O=C(O)c1c(Br)c(Br)c(Br)c(Br)c1-c1c2ccc(=O)cc-2oc2cc(O)ccc12	> 200 µM	28.2 µM	–
